Test results as given in patent US10689408B2, “Bisphosphonic acid compound” (FUJIYAKUHIN CO., LTD., priority 2016, dated 2020).

Tested on: carotid artery intima-media thicknesses
Test: not given
Conditions: type 2 diabetic patients; cited from earlier work

| SMILES | carotid artery intima-media thickness |
| --- | --- |
| CC(O)(P(=O)(O)O)P(=O)(O)O [etidronate, Etidronate] | significantly decrease the carotid artery intima-media thicknesses |

Tested on: calcification in the aorta
Test: not given
Conditions: dialysis patients; cited from earlier work

| SMILES | inhibition of calcification in the aorta |
| --- | --- |
| CC(O)(P(=O)(O)O)P(=O)(O)O [etidronate, Etidronate] | significantly inhibit calcification in the aorta |

Tested on: Vitamin D3-Induced Vascular Calcification Rat Model
Test: Ectopic calcification inhibitory effect in vitamin D3-induced vascular calcification rat model (amount of aortic phosphorus)
Assay type: in vivo, Male Wistar/ST rats
Conditions: 336 h, dose 3 mg/kg, oral, once a day for 2 weeks, aortic phosphorus relative to control (vehicle), read-out: Rate of inhibition (%) of ectopic calcification
Text: Test Example: Ectopic Calcification Inhibitory Effect in Vitamin D3-Induced Vascular Calcification Rat Model
Male Wistar/ST rats were grouped according to their body weights as an index (6 individuals per group). Cholecalciferol (Wako Pure Chemical Industries, Ltd.) was subcutaneously administered at repeated doses of 125,000 IU/kg to each rat for 3 days to induce vascular calcification. Each test substance was orally administered at repeated doses once a day for 2 weeks from the day of administration of cholecalciferol. The rats were fasted from approximately 6 hours before the administration of the test substance to approximately 2 hours thereafter. On the day following the final administration, total blood was collected from the descending aorta of each rat under isoflurane anesthesia, and then, the aorta from the aortic root to the posterior limb bifurcation was excised. The aorta was chopped, then homogenized after adding 5 mL of 1 N hydrochloric acid and left at room temperature for 1 hour. After centrifugation at 15,000 rpm at 4° C. for 15 minutes, the obtained supernatant was used as a measurement sample. The amount of phosphorus in the measurement sample was measured using Phospha C-Test Wako (Wako Pure Chemical Industries, Ltd.) and used as an index for calcification. An average value of the amounts of aortic phosphorus in each group was determined to calculate the rate of inhibition of calcification by the administration of the test substance relative to a control (vehicle administration) (Table 7).

| SMILES | inhibition in vivo at 3 mg/kg |
| --- | --- |
| CC(C1CCCC1)C(O)(P(=O)(O)O)P(=O)(O)O (stereo not drawn) [Example 8, Disodium (2-cyclopentyl-1-hydroxypropane-1,1-diyl)bisphosphonate] | 22% |
| O=P(O)(O)C(O)(CC1CC2CCC1C2)P(=O)(O)O (stereo not drawn) [Example 31, Disodium [2-(bicyclo[2.2.1]heptan-2-yl)-1-hydroxyethane-1,1-diyl]bisphosphonate] | 29% |

Same assay, conditions: 336 h, dose 5 mg/kg, oral, once a day for 2 weeks, aortic phosphorus relative to control (vehicle), read-out: Rate of inhibition (%) of ectopic calcification

| SMILES | inhibition in vivo at 5 mg/kg |
| --- | --- |
| C[C@H]1CC[C@H](CC(O)(P(=O)(O)O)P(=O)(O)O)C1 (relative stereo) [Example 17, Disodium {1-hydroxy-2-[(1R*,3R*)-3-methylcyclopentyl]ethane-1,1-diyl}bisphosphonate] | 80% |
| O=P(O)(O)C(O)(CC1CCC(F)(F)C1)P(=O)(O)O (stereo not drawn) [Example 23, Disodium [2-(3,3-difluorocyclopentyl)-1-hydroxyethane-1,1-diyl]bisphosphonate] | 43% |
| CCCC1(CC(O)(P(=O)(O)O)P(=O)(O)O)CCCC1 [Example 13, Disodium [1-hydroxy-2-(1-propylcyclopentyl)ethane-1,1-diyl]bisphosphonate] | 53% |
| O=P(O)(O)C(O)(C=C1CCCC1)P(=O)(O)O [Example 7, Disodium (2-cyclopentylidene-1-hydroxyethane-1,1-diyl)bisphosphonate] | 51% |
| O=P(O)(O)C(O)(C[C@@H]1CC[C@@H](Oc2ccccc2)C1)P(=O)(O)O (relative stereo) [Example 20, Disodium {1-hydroxy-2-[(1R*,3R*)-3-phenoxycyclopentyl]ethane-1,1-diyl}bisphosphonate] | 46% |
| CC1(C)CC(CC(O)(P(=O)(O)O)P(=O)(O)O)CC(C)(C)C1 [Example 35, Disodium [1-hydroxy-2-(3,3,5,5-tetramethylcyclohexyl)ethane-1,1-diyl]bisphosphonate] | 71% |
| C[C@H]1CC[C@@H](CC(O)(P(=O)(O)O)P(=O)(O)O)C1 (relative stereo) [Example 16, Disodium {1-hydroxy-2-[(1R*,3S*)-3-methylcyclopentyl]ethane-1,1-diyl}bisphosphonate] | 75% |
| CC1(C)CCC(CC(O)(P(=O)(O)O)P(=O)(O)O)C1 (stereo not drawn) [Example 21, Disodium [2-(3,3-dimethylcyclopentyl)-1-hydroxyethane-1,1-diyl]bisphosphonate] | 68% |
| CC1(CC(O)(P(=O)(O)O)P(=O)(O)O)CCCCC1 [Example 30, Disodium [1-hydroxy-2-(1-methylcyclohexyl)ethane-1,1-diyl]bisphosphonate] | 47% |
| CC1CCC(CC(O)(P(=O)(O)O)P(=O)(O)O)C1 (stereo not drawn) [Example 15, Disodium [1-hydroxy-2-(3-methylcyclopentyl)ethane-1,1-diyl]bisphosphonate] | 87% |
| O=P(O)(O)C(O)(CC1CCCCC1)P(=O)(O)O [Example 27, Disodium (2-cyclohexyl-1-hydroxyethane-1,1-diyl)bisphosphonate] | 82% |
| C[C@@H]1C[C@@H](CC(O)(P(=O)(O)O)P(=O)(O)O)C[C@@H]1C [Example 25, Disodium {2-[(1s,3R,4S)-3,4-dimethylcyclopentyl]-1-hydroxyethane-1,1-diyl}bisphosphonate] | 64% |
| CC1(CC(O)(P(=O)(O)O)P(=O)(O)O)CCCC1 [Example 11, Disodium [1-hydroxy-2-(1-methylcyclopentyl)ethane-1,1-diyl]bisphosphonate] | 57% |
| CC1(CC(O)(P(=O)(O)O)P(=O)(O)O)CCC1 [Example 4, Disodium [1-hydroxy-2-(1-methylcyclobutyl)ethane-1,1-diyl]bisphosphonate] | 39% |
| O=P(O)(O)C(O)(C[C@@H]1CC[C@@H](F)C1)P(=O)(O)O (relative stereo) [Example 18, Disodium {2-[(1R*,3R*)-3-fluorocyclopentyl]-1-hydroxyethane-1,1-diyl}bisphosphonate] | 53% |
| C[C@@H]1C[C@H](CC(O)(P(=O)(O)O)P(=O)(O)O)C[C@@H]1C [Example 24, Disodium {2-[(1r,3R,4S)-3,4-dimethylcyclopentyl]-1-hydroxyethane-1,1-diyl}bisphosphonate] | 93% |
| CC1(C)CC(CC(O)(P(=O)(O)O)P(=O)(O)O)CC1(C)C [Example 26, Disodium [1-hydroxy-2-(3,3,4,4-tetramethylcyclopentyl)ethane-1,1-diyl]bisphosphonate] | 66% |
| CCC1(CC(O)(P(=O)(O)O)P(=O)(O)O)CCCC1 [Example 12, Disodium [2-(1-ethylcyclopentyl)-1-hydroxyethane-1,1-diyl]bisphosphonate] | 28% |
| CC1CCCC1CC(O)(P(=O)(O)O)P(=O)(O)O (stereo not drawn) [Example 14, Disodium [1-hydroxy-2-(2-methylcyclopentyl)ethane-1,1-diyl]bisphosphonate] | 29% |

Same assay, conditions: 336 h, dose 10 mg/kg, oral, once a day for 2 weeks, aortic phosphorus relative to control (vehicle), read-out: Rate of inhibition (%) of ectopic calcification

| SMILES | inhibition in vivo at 10 mg/kg |
| --- | --- |
| O=P(O)(O)C(O)(CC1CCCCCC1)P(=O)(O)O [Example 44, Disodium (2-cycloheptyl-1-hydroxyethane-1,1-diyl)bisphosphonate] | 95% |
| CC(C1CCC1)C(O)(P(=O)(O)O)P(=O)(O)O (stereo not drawn) [Example 3, Disodium (2-cyclobutyl-1-hydroxypropane-1,1-diyl)bisphosphonate] | 64% |

Same assay, conditions: 336 h, dose 30 mg/kg, oral, once a day for 2 weeks, aortic phosphorus relative to control (vehicle), read-out: Rate of inhibition (%) of ectopic calcification

| SMILES | inhibition in vivo at 30 mg/kg |
| --- | --- |
| O=P(O)(O)C(O)(CC1CCCC1)P(=O)(O)O [Example 6, Disodium (2-cyclopentyl-1-hydroxyethane-1,1-diyl)bisphosphonate] | 95% |
| CC(C1CCCCC1)C(O)(P(=O)(O)O)P(=O)(O)O (stereo not drawn) [Example 28, Disodium (2-cyclohexyl-1-hydroxypropane-1,1-diyl)bisphosphonate] | 95% |
